The values that follow come from patent US8476081B2, “Assay for evaluating affinity and specificity of ligand-albumin binding” (Janssen Pharmaceutica NV, priority 2009, dated 2013).

As usually defined, the IC50 is the concentration that inhibits the measured activity by half. Read a high IC50 as weaker potency. One may read the Kd as a measure of binding affinity in units of concentration.

Data set [1] deals with Human Serum Albumin (HSA) site I (Homo sapiens, UniProt P02768). The data set is described as follows: 1,8-ANS site-specific probe displacement (fluorescence) from HSA site I. To be noted: for % Displacement: percent displacement of the site-specific probe 1,8-ANS at the second highest concentration of test ligand. An excerpt: In addition to the thermal shift assay, the assay test plate may be utilized in a separate fluorescence measurement using a plate-based reader that is compatible with any relevant wavelengths. The preferred plate-based reader is Tecan Satire II. The displacement of site-specific probe such as 1,8-ANS from albumin site 1 by test ligand may cause a decrease in observed fluorescence that may be fit to Equation 11 to determine the value of IC50.
Additionally, the percent displacement may be determined by (y−yhigh), divided by the difference of low (y0) and high endpoints (yhigh), wherein y is determined at the second highest concentration.
(§1) 1× reaction mixture of about 50 μg/mL human serum albumin, about 4 μM 1,8-ANS, about 150 mM NaCl, about 25 mM PIPES, pH 7.2, and about 0.002% Tween®-20 was prepared.
(§2) To prevent evaporation, about 1 μL of silicone oil was added to the plate using multichannel pipettors.
(§3) The values of Tm, ΔH, yF,Tm, mF, yU,Tm and mU were calculated for each sample according to Equation 9. Further, the value of Tm over the compound concentration was used to calculate the binding constant (KD) using Equation 10b. A shift in the denaturation curve of albumin indicates whether the compound binds to albumin, and the value of KD indicates the binding strength of compounds to albumin. A shift of the fluorescence signal indicates the specificity of compounds to albumin, and the value of IC50 indicates the binding strength to the site I (Equation 11).
(§4) The compounds and 1× reaction mixture were dispensed and measured for the fluorescence value using the plate-based reader Tecan® Safire II. Then the plate was heated in a ThermoFluor® system and measured for fluorescence value and the thermal shift value. The fluorescence values were measured twice by both plate reader and ThermoFluor®. The fluorescence value obtained from ThermoFluor® was used for qualitative assessment whereas those from the plate reader was used for quantitative assessment. The value of IC50 was determined by the fluorescence obtained from the plate reader and was fit using Equation 11 described above. The value of KD was determined by the readings from ThermoFluor® and was fit using Equation 10b described above.

The target of data set [2] is Human Serum Albumin (HSA) (Homo sapiens, UniProt P02768). Put plainly: ThermoFluor thermal shift assay with human serum albumin. How it is done: as §1, §2
The plates were loaded onto a ThermoFluor® device and heated from about 25° C. to about 95° C. at a ramp-rate of about 1° C. per minute. Fluorescence was measured by continuous illumination with UV light (Hamamatsu LC6) via fiber optic and filtered through a band-pass filter of about 390±10 nm; >6 OD cutoff. Fluorescence emissions were detected by measuring light intensity using a CCD camera (Sensys, Roper Scientific) filtered to detect about 500±25 nm; >6 OD cutoff. This allows for the entire plate to be simultaneously monitored and each sample to be independently monitored. One or more images were collected at an interval of every about 0.5° C. to about 1° C. The sum of the pixel intensity at a given area of the plate was recorded vs. temperature.
as §3, §4
Background: DSF heats the sample and reads unfolding from a dye or from intrinsic fluorescence.

In a further data set the target is T1, Rat Serum Albumin (Rattus norvegicus, UniProt P02770).
T1 construct: The above albumins were prepared using method IV of Cohn et al. (J. Am. Chem. Soc. 69: 1753-1761, 1947) and purified with 1× crystallization; purchased Sigma A-6414
Put plainly: ThermoFluor thermal shift assay with rat serum albumin. The data set is classed as binding. An excerpt:
(§5) To evaluate the bioavailability of a compound in various species, the compound's affinity and specificity to albumins from human, bovine, rat, and mouse were examined. […] The resulting 1× reaction mixture comprising human serum albumin, bovine serum albumin, rat serum albumin, or mouse serum albumin was used with a panel of compounds in the binding assay.

In the next data set the target is T2, Mouse Serum Albumin (Mus musculus, UniProt P07724).
T2 construct: The above albumins were prepared using method IV of Cohn et al. (J. Am. Chem. Soc. 69: 1753-1761, 1947) and purified with 1× crystallization; purchased Sigma A-3559
Put plainly: ThermoFluor thermal shift assay with mouse serum albumin. The data set is classed as binding.
Source text: as §5

In data set [3] the target is T3, Bovine Serum Albumin (BSA) (Bos taurus, UniProt P02769).
T3 construct: The above albumins were prepared using method IV of Cohn et al. (J. Am. Chem. Soc. 69: 1753-1761, 1947) and purified with 1× crystallization; purchased Sigma A-7638
Put plainly: ThermoFluor thermal shift assay with bovine serum albumin. The data set is classed as binding.
Source text: as §5

A further data set has as its target HSA (Homo sapiens, UniProt P02768). To be noted: binding site on HSA from previous reports; cited from earlier work.
Where [4] appears, read: Human Albumin (KD), Example 4, Table 3.
[5] abbreviates: classified from KD versus IC50 and % displacement of 1,8-ANS.
[6] abbreviates: HSA - KD, Example 3, Table 2, ThermoFluor, Equation 10b.

SMILES strings stand for the structures. Read-outs that look alike come from different tables or passages of the source.

T1 sequence (P02770 25-608): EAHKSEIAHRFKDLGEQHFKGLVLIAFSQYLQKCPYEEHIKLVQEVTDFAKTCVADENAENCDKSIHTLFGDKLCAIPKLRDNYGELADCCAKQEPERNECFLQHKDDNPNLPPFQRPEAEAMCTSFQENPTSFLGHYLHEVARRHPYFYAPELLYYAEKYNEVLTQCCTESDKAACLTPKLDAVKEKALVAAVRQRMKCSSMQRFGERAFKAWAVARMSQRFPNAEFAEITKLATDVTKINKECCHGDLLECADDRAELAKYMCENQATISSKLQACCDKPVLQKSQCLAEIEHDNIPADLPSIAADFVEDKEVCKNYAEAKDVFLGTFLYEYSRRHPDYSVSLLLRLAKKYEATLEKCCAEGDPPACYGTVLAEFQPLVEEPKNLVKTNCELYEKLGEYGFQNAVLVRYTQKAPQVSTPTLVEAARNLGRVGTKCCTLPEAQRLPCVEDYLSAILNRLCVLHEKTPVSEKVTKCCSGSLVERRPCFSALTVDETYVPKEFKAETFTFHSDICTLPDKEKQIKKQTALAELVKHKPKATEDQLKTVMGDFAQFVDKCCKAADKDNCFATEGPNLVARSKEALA
T3 sequence (P02769 25-607): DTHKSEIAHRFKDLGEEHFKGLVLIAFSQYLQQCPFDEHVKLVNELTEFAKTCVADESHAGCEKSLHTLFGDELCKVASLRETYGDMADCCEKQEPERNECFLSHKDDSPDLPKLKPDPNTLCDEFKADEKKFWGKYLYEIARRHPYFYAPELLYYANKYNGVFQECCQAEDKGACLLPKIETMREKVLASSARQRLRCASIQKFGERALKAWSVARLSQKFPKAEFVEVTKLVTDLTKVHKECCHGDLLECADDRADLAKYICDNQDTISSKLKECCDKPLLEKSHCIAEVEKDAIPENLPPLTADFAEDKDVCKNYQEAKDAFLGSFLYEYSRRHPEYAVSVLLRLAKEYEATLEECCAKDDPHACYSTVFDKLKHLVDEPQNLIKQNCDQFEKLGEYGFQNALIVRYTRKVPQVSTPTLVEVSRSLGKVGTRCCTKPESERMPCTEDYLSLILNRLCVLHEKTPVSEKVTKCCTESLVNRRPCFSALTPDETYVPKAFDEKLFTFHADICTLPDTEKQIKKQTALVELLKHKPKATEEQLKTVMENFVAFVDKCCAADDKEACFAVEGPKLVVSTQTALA
T2 sequence (P07724 25-608): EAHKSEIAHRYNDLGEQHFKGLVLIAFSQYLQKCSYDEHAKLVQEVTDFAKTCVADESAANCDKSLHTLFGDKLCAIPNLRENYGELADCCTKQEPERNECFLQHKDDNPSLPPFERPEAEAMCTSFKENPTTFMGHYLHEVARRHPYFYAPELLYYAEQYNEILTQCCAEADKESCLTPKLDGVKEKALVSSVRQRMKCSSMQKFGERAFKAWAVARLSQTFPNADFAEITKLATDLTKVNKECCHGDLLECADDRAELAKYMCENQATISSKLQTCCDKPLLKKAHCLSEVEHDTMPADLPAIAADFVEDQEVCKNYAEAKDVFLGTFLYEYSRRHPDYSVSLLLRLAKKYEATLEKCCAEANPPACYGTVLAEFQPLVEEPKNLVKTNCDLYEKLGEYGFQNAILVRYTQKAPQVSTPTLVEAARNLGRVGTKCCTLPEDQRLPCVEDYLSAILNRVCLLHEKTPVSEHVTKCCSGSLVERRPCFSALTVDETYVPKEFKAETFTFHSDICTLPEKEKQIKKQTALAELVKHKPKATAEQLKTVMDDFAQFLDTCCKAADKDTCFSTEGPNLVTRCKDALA
Human Serum Albumin (HSA) site I, sequence (P02768 25-609): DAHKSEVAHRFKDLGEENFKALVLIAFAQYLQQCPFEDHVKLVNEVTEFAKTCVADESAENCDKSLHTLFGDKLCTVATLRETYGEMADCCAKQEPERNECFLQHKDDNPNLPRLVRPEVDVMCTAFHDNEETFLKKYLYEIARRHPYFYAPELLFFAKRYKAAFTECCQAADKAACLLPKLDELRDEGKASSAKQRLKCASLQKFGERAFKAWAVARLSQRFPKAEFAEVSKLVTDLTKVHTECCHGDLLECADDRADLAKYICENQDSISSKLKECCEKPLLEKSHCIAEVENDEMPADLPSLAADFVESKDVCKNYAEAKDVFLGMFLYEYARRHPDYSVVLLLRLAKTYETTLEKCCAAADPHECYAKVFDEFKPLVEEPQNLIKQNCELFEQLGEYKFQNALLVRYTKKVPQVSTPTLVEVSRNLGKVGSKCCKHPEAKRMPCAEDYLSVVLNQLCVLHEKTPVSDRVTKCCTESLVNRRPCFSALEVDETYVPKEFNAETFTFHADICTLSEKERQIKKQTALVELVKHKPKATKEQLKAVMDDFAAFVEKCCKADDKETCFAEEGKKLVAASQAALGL
HSA, sequence (P02768 25-609): as above
Human Serum Albumin (HSA), sequence (P02768 25-609): as above

Consider `COc1cc(NS(=O)(=O)c2ccc(N)cc2)nc(OC)n1` [Sulfadimethoxine, sulfadimethoxine], for which the IC50 in data set [1] turned out to be 96 µM. The “% Displacement” value in data set [1] is reported as “(71) %”. Further, the Kd was > 62.5 µM in data set [2] (setting [4]); 9.4 µM on Rat Serum Albumin (Example 4, Table 3); 69.5 µM on Mouse Serum Albumin (Example 4, Table 3); > 62.5 µM in data set [3] (Example 4, Table 3). In addition, the “Type of HSA Binding Interaction” value in data set [2] (setting [5]) is “Type 1”. Moreover, the “Reported Binding Site” value at HSA is listed as “Site 1”.

Take `C=CC1=C(C)/C(=C/c2[nH]c(Cc3[nH]c(/C=C4\NC(=O)C(C)=C4C=C)c(C)c3CCC(=O)O)c(CCC(=O)O)c2C)NC1=O` [Bilirubin, bilirubin]: in data set [1], the “% Displacement” value is listed as “(11) %”. For the same compound, the Kd was 55.7 µM in data set [2] (setting [4]); > 120 µM at Rat Serum Albumin (Example 4, Table 3); > 120 µM at Mouse Serum Albumin (Example 4, Table 3); 85.4 µM in data set [3] (Example 4, Table 3).

As to `c1ccc2c(c1)[nH]c1cnccc12` [Norharmane, norharmane], in data set [2], the “Type of HSA Binding Interaction” value is reported as “Type 5”. Further, the Kd was 17.6 µM in data set [2] (setting [6]); 17.6 µM in data set [2] (setting [4]); > 62.5 µM at Rat Serum Albumin (Example 4, Table 3); > 62.5 µM at Mouse Serum Albumin (Example 4, Table 3); > 62.5 µM in data set [3] (Example 4, Table 3). The “Reported Binding Site” value on HSA is given as “Site 2”.

With `CC(C(=O)O)c1ccc2c(c1)[nH]c1ccc(Cl)cc12` (stereo not drawn) [Carprofen, carprofen], the IC50 in data set [1] was 8.39 µM. The “% Displacement” value in data set [1] is “(87) %”. The Kd in data set [2] (setting [6]) was 2.1 µM; in data set [2] (setting [4]) it was 2.1 µM; at Rat Serum Albumin (Example 4, Table 3) it was 1.53 µM; at Mouse Serum Albumin (Example 4, Table 3), 1.09 µM; in data set [3] (Example 4, Table 3), 2.91 µM. In addition, the “Type of HSA Binding Interaction” value in data set [2] (setting [5]) is listed as “Type 3”. For the same compound, the “Reported Binding Site” value at HSA is recorded as “Site 2”.

The compound `CCC(Cc1c(I)cc(I)c(N)c1I)C(=O)O` (stereo not drawn) [Iodopanoate, iodopanoate] registered an IC50 in data set [1] of 7.45 µM. In addition, the “% Displacement” value in data set [1] is “(83) %”. Besides, the dissociation constant Kd in data set [2] was 0.633 µM; at Rat Serum Albumin (Example 4, Table 3), 0.96 µM; at Mouse Serum Albumin (Example 4, Table 3), 0.758 µM; in data set [3] (Example 4, Table 3), 1.3 µM. Also, the “Type of HSA Binding Interaction” value in data set [2] (setting [5]) was “Type 3”. In addition, the “Reported Binding Site” value on HSA is recorded as “Site 2”.

Take `N[C@@H](Cc1c[nH]c2ccccc12)C(=O)O` [L-Tryptophan, L-tryptophan]: the “Type of HSA Binding Interaction” value in data set [2] is on record as “Type 5”. The Kd (in data set [2] (Human Albumin (KD)); on Rat Serum Albumin; on Mouse Serum Albumin; in data set [3]) was > 62.5 µM each time. On HSA, the “Reported Binding Site” value is reported as “Multiple sites”.

Turning to `Nc1ccc(S(=O)(=O)Nc2nccs2)cc1` [Sulfathiazole, sulfathiazole], in data set [1], the “% Displacement” value is given as “(40) %”. Further, the Kd is > 62.5 µM in data set [2] (setting [4]); > 62.5 µM at Rat Serum Albumin (Example 4, Table 3); > 62.5 µM at Mouse Serum Albumin (Example 4, Table 3); > 62.5 µM in data set [3] (Example 4, Table 3). Besides, the “Type of HSA Binding Interaction” value in data set [2] (setting [5]) is “Type 4”. Also, the “Reported Binding Site” value at HSA was “Site 1”.

Compound `CN1C(C(=O)Nc2ccccn2)=C(O)c2sccc2S1(=O)=O` [Tenoxicam, tenoxicam] registered an IC50 in data set [1] of 35.5 µM. Moreover, the “% Displacement” value in data set [1] is listed as “(84) %”. Moreover, the Kd in data set [2] (setting [6]) is 13 µM; in data set [2] (setting [4]), 13 µM; at Rat Serum Albumin (Example 4, Table 3), 33.8 µM; on Mouse Serum Albumin (Example 4, Table 3), > 62.5 µM; in data set [3] (Example 4, Table 3) it was > 62.5 µM.

Regarding `C[C@]12CCC(=O)C=C1C=C[C@@H]1[C@@H]2CC[C@@]2(C)[C@H]1CC[C@@]2(O)CCC(=O)O` [Canrenoate, canrenoate], in data set [1], the “% Displacement” value was “(33) %”. For the same compound, the Kd in data set [2] (setting [4]) is 39.5 µM; on Rat Serum Albumin (Example 4, Table 3), > 62.5 µM; on Mouse Serum Albumin (Example 4, Table 3), > 62.5 µM; in data set [3] (Example 4, Table 3), > 62.5 µM. The “Type of HSA Binding Interaction” value in data set [2] (setting [5]) is given as “Type 4”. The “Reported Binding Site” value at HSA is “Site 1”.

Consider `NS(=O)(=O)c1cc2c(cc1Cl)N=CNS2(=O)=O` [Chlorothiazide, chlorothiazide], for which the “% Displacement” value in data set [1] is reported as “(12) %”. Moreover, the Kd in data set [2] (setting [4]) was > 62.5 µM; at Rat Serum Albumin (Example 4, Table 3) it was > 62.5 µM; on Mouse Serum Albumin (Example 4, Table 3), > 62.5 µM; in data set [3] (Example 4, Table 3), > 62.5 µM. The “Type of HSA Binding Interaction” value in data set [2] (setting [5]) is on record as “Type 4”. The “Reported Binding Site” value on HSA was “Site 2”.

For the compound `CCOC(=O)C(C)(C)Oc1ccc(Cl)cc1` [Clofibrate, clofibrate], the “% Displacement” value in data set [1] was “(10) %”. In addition, the Kd in data set [2] (setting [4]) is > 62.5 µM; at Rat Serum Albumin (Example 4, Table 3), > 62.5 µM; on Mouse Serum Albumin (Example 4, Table 3), > 62.5 µM; in data set [3] (Example 4, Table 3), > 62.5 µM.

In turn, `O=c1c(O)c(-c2ccc(O)c(O)c2)oc2cc(O)cc(O)c12` [Quercetin, quercetin] had an IC50 in data set [1] of 25 µM. The results for the “% Displacement” value in data set [1] and in data set [1] (listed as quercetin) were “(51) %” and “about 51%”, respectively. Further, the Kd is 7.9 µM in data set [2] (setting [6]); > 62.5 µM in data set [2] (setting [4]); > 62.5 µM on Rat Serum Albumin (Example 4, Table 3); > 62.5 µM at Mouse Serum Albumin (Example 4, Table 3). Moreover, the “Type of HSA Binding Interaction” value in data set [2] (setting [5]) is listed as “Type 1”. Further, at HSA, the “Reported Binding Site” value is given as “Site 1”.

In the case of `CCCC(CCC)C(=O)O` [Valproate, valproate], in data set [1], the “% Displacement” value was “(31) %”. In addition, the Kd in data set [2] (setting [4]) is > 62.5 µM; at Rat Serum Albumin (Example 4, Table 3) it was > 62.5 µM; at Mouse Serum Albumin (Example 4, Table 3), > 62.5 µM; in data set [3] (Example 4, Table 3) it was > 62.5 µM.
